Experimental data as given in patent publication US20120328696A1, “ANTI-PARKINSONIAN COMPOUND ACETYLSALICYLIC ACID MALTOL ESTER” (Hutecs Korea Pharmaceutical Co., Ltd., priority 2008, published 2012).

How the values were obtained:
Format in all cases: in vivo
[1] = system: PKCδ; assay: Striatal PKCδ expression after MA (western blot); conditions: MA 8 mg/kg i.p. x4, GPx-1 (+/+) and (−/−) mice; for effect on MA-induced striatal PKCδ expression: p.o., AME 25 or 50, EBS 10 or 20, rottlerin 10 or 20 mg/kg
Procedure: (§1) The mice received four times of MA (8 mg/kg, ip) or saline as a 2 hr-time interval. Chemicals (AME, EBS, and PKC inhibitors) were administrated for 5 consecutive days (twice daily), and were given 2 times at 4 hr and 30 min before the first MA injection as shown in the experimental schedule. Animals were sacrificed at 4 hrs and 3 days after the final MA administration.
Tissues were homogenized in lysis buffer, containing 200 mM Tris HCl (pH 6.8), 1% SDS, 5 mM EGTA (ethylene glycol tetraacetic acid), 5 mM EDTA (ethylenediaminetetraacetic acid), 10% glycerol, 1× phosphatase inhibitor cocktail I, 1× protease inhibitor cocktail. Lysate was centrifuged at 12,000×g for 30 min and supernatant fraction was used for Western blot analysis. […] And then, membranes were incubated with HRP-conjugated secondary anti-rabbit IgG (1:1000, GE healthcare, Piscataway, N.J., USA), anti-mouse IgG (1:1000, Sigma) or anti-goat IgG (1:1000, Sigma) for 2 h. Subsequent visualization was performed using enhanced chemiluminescence system (ECL Plus®, GE healthcare).

[2] = system: phospho MDM2-ser 166; assay: Striatal phospho-MDM2 expression after MA (western blot); conditions: p.o.; AME 50, EBS 20, rottlerin 20 mg/kg; MA 8 mg/kg i.p. x4; GPx-1 (+/+) and (−/−) mice
Procedure: as §1
(§2) The western blot assays was performed as described previously (Kim et al., 2003). Tissues were homogenized in lysis buffer, containing 200 mM Tris HCl (pH 6.8), 1% SDS, 5 mM EGTA (ethylene glycol tetraacetic acid), 5 mM EDTA (ethylenediaminetetraacetic acid), 10% glycerol, 1× phosphatase inhibitor cocktail I, 1× protease inhibitor cocktail. Lysate was centrifuged at 12,000×g for 30 min and supernatant fraction was used for Western blot analysis. Proteins (20-50 ug/lane) were separated by 6%, 8%, 10% or 15% sodium dodecyl sulfate-polyacrylamide gel electrophoresis and transferred onto the PVDF membranes. Following transfer, the membranes were preincubated with 5% non-fat milk and incubated overnight at 4° C. with primary antibody against β-actin (1:50000, Sigma, St. Louis, Mo., USA), TH (1:5000, Chemicon), TH phosphor-Ser 19 (1:1000, Chemicon,), TH phosphor-Ser 31 (1:500, Chemicon), TH phosphor-Ser 40 (1:500, Chemicon), F4/80 (1:500, Serotec), GPx1 (1:2500, AbFrontier), PKC (1:5000, Santa Cruz biotechnology, Santa Cruz, Calif., USA), p53 (1:5000, Cell signaling, Beverly, Mass., USA), MDM2 (1:1000, BD Pharmingen, San Jose, Calif., USA), MDM2 phospho-Ser 166 (1:1000, cell signaling), BDNF (1:500, Chemicon), GDNF (1:250, Santa Cruz), COX-2 (1:2000, Cayman, Ann Arbor, MC, USA), IL-6 (1:2000, Abcam, Cambridge, Mass., USA), TNF-a (1:1000, R&D Systems, Mckinley place NE, NM, USA), IFN-γ (1:500, Chemicon) or Iba-1 (1:500, Wako, Osaka, Japan). And then, membranes were incubated with HRP-conjugated secondary anti-rabbit IgG (1:1000, GE healthcare, Piscataway, N.J., USA), anti-mouse IgG (1:1000, Sigma) or anti-goat IgG (1:1000, Sigma) for 2 h. […]

[3] = system: cyclooxygenase (COX)-2; assay: COX-2 expression after MA (western blot); conditions: p.o.; AME 50, EBS 20, rottlerin 20 mg/kg; MA 8 mg/kg i.p. x4; GPx-1 (+/+) and (−/−) mice
Procedure: as §1, §2

[4] = system: glial cell line-derived neurotrophic factor (GDNF); assay: Striatal GDNF expression after MA (western blot); conditions: p.o.; AME 50, EBS 20, rottlerin 20 mg/kg; MA 8 mg/kg i.p. x4; GPx-1 (+/+) and (−/−) mice
Procedure: as §1, §2

[5] = system: tyrosine hydroxylase (TH); assay: Striatal tyrosine hydroxylase (TH) activity after MA; conditions: p.o.; AME 50, EBS 20, rottlerin 20 mg/kg; MA 8 mg/kg i.p. x4; GPx-1 (+/+) and (−/−) mice
Procedure: as §1
TH activity was measured according to the method of Lucock et al. with some modification (Duan et al., 2005). Briefly, striatum was lysed in 400 μl TH working solution (1-tyrosine: 300 μmol/L; FeSO4: 1 mmol/L; NaAC: 200 mmol/L; NSD-1050:500 won; DTT: 1 mmol/L; MES: 40 mmol/L, pH 5.2-5.6) with freezing-thawing repeatedly for three times. The lysate was reacted for 3 h at 25° C. The reaction was stopped by 0.4 mol/L perchloric acid, and then reactant was centrifuged at 14,000×g for 10 min. Supernatants were collected to assay the amounts of 1-dopa by HPLC-ECD. The activity of TH was expressed as that amount of 1-dopa per minute and per gram of wet tissue.

[6] = system: GPx-1; assay: Striatal glutathione peroxidase (GPx) activity after MA; conditions: p.o.; AME 50, EBS 20, rottlerin 20 mg/kg; MA 8 mg/kg i.p. x4; GPx-1 (+/+) mice
Procedure: as §1
GPx were immediately measured from dissected striatal tissues. The tissues were sonicated in ice-cold 50 mM potassium phosphate buffer (pH 7.4, containing 2 mM EDTA), and were centrifuged at 11,000×g for 15 min at 4° C. The resulting supernatants were collected and the protein concentrations were quantified with the Quant-iT assays, using the Qubit™ fluorometer (Invitrogen, Carlsbad, Calif., USA). Cellular GPx activity was measured by the method of Paglia and Valentine (1967) with minor modification (Shin et al., 2008). The incubation mixture contained 1 mM glutathione, 0.2 mM NADPH, and 1.4 IU glutathione reductase in 0.05 M potassium phosphate buffer, pH 7.0. The reaction was initiated by the simultaneous addition of supernatant (0.3-0.8 mg protein) and 0.25 mM H2O2. The change in absorbance at 340 nm was followed by for 4.5 min and 1 UI of GPx activity was defined as the amount required to oxidize 1 μM NADPH/min, based on the molar absorptivity of […] for NADPH.

[7] = system: GPx-1 (+/+)- and GPx-1 (−/−)-mice; assay: Locomotor activity after MA; conditions: MA 8 mg/kg i.p. x4, GPx-1 (+/+) and (−/−) mice
Procedure: as §1
Locomotor activity was measured for 30 min 3 days after the last MA administration using an automated video-tracking system (Noldus Information Technology, Wagenin, The Netherlands). Four test boxes (40×40×30 cm high) were operated simultaneously by an IBM computer. Mice were studied individually during locomotion in each test box, where they were adapted for 5 min before starting the experiment. […] The distance traveled in cm by the animals in horizontal locomotor activity was analyzed. Data were collected and analyzed between 09:00 and 17:00 h (Kim et al., 2001).

[8] = system: tumor necrosis factor (TNF)-α; assay: TNF-α expression after MA (western blot); conditions: p.o.; AME 50, EBS 20, rottlerin 20 mg/kg; MA 8 mg/kg i.p. x4; GPx-1 (+/+) and (−/−) mice
Procedure: as §1, §2

[9] = p.o., AME 25 or 50, EBS 10 or 20, rottlerin 10 or 20 mg/kg

| Compound | effect on MA-induced striatal PKCδ expression [1] | effect on MA-induced decrease in phospho-MDM2 expression [2] | effect on MA-induced increase in COX-2 expression [3] | effect on MA-induced reduction in GDNF expression [4] | effect on MA-induced decrease in TH activity [5] | effect on MA-induced decrease in striatal GPx-1 activity [6] | effect on MA-induced impairment in locomotor activity [7, 9] | effect on MA-induced increase in TNF-α expression [8] | effect on MA-induced increase in striatal PKCδ expression ([1]; intra-striatal) | effect on MA-induced impairment in locomotor activity ([7]; PKC inhibitors intra-striatal (chelerythrine 0.2 ug/head, rottlerin 3.0 ug/head significant)) |
| --- | --- | --- | --- | --- | --- | --- | --- | --- | --- | --- |
| O=c1c2ccccc2[se]n1-c1ccccc1 [EBS, 2-phenyl-1,2-benzisoselenazol-3(2H)-one] | significantly reduced MA-induced the PKCδ- and cleaved PKCδ-expressions in a dose-related manner | significantly attenuated | significantly and consistently attenuating effects | significantly attenuated these reductions | decrease in TH activity was attenuated | inhibited MA-induced decrease | inhibited these effects in a dose-dependent manner | significantly and consistently attenuating effects | – | – |
| CC(=O)c1c(O)c(C)c(O)c(Cc2c(O)c3c(c(C(=O)/C=C/c4ccccc4)c2O)OC(C)(C)C=C3)c1O [rottlerin] | significantly reduced MA-induced the PKCδ- and cleaved PKCδ-expressions in a dose-related manner | significantly attenuated | significantly and consistently attenuating effects | significantly attenuated these reductions | decrease in TH activity was attenuated | inhibited MA-induced decrease | inhibited these effects in a dose-dependent manner | significantly and consistently attenuating effects | attenuated the MA-induced increases in PKCδ expressions in a dose-dependent manner | attenuated the MA-behavioral impairments in a dose-dependent manner |
| CC(=O)Oc1ccccc1C(=O)Oc1c(C)occc1=O [AME, 3-(2-methyl-4-pyronyl)-2-acetyloxybenzoate] | significantly reduced MA-induced the PKCδ- and cleaved PKCδ-expressions in a dose-related manner | significantly attenuated | significantly and consistently attenuating effects | significantly attenuated these reductions | decrease in TH activity was attenuated | inhibited MA-induced decrease | inhibited these effects in a dose-dependent manner | significantly and consistently attenuating effects | – | – |
